# Test results published in US9422297B2, “Tricyclic compounds having cytostatic and/or cytotoxic activity and methods of use thereof” (Duquesne University of the Holy Ghost, priority 2007, dated 2016).
# What was measured:
# [1] = tested on: ACHN; assay: NCI In-Vitro Testing, Renal Cancer; type: cell-based
# [2] = tested on: SR; assay: NCI In-Vitro Testing, Leukemia; type: cell-based
# [3] = tested on: SN12C; assay: NCI In-Vitro Testing, Renal Cancer; type: cell-based
# [4] = tested on: NCI-H226; assay: NCI In-Vitro Testing, Non-Small Cell Lung Cancer; type: cell-based
# [5] = tested on: HT29; assay: NCI In-Vitro Testing, Colon Cancer; type: cell-based
# [6] = tested on: SW-620; assay: NCI In-Vitro Testing, Colon Cancer; type: cell-based
# [7] = tested on: 60 tumor cell line panel; assay: NCI 60 preclinical in vitro tumor screening panel; details: read-out: GI50 across tumor panel
compound,measurement,setting,value
Nc1nc2c(c(Nc3ccc(Cl)cc3)n1)-c1ccccc1C2 [AAG145-136],GI50,[1],3.42E−7 Molar
same,LC50,[1],>1.00E−4 Molar
same,TGI,[1],1.41E−5 Molar
same,Percent Growth,[1]; Log10 Concentration −4.0 Molar,−22%
same,Percent Growth,[1]; Log10 Concentration −5.0 Molar,4%
same,Percent Growth,[1]; Log10 Concentration −6.0 Molar,21%
same,Percent Growth,[1]; Log10 Concentration −7.0 Molar,83%
same,Percent Growth,[1]; Log10 Concentration −8.0 Molar,89%
same,GI50,[2],4.84E−8 Molar
same,LC50,[2],>1.00E−4 Molar
same,TGI,[2],>1.00E−4 Molar
same,Percent Growth,[2]; Log10 Concentration −4.0 Molar,2%
same,Percent Growth,[2]; Log10 Concentration −5.0 Molar,12%
same,Percent Growth,[2]; Log10 Concentration −6.0 Molar,22%
same,Percent Growth,[2]; Log10 Concentration −7.0 Molar,41%
same,Percent Growth,[2]; Log10 Concentration −8.0 Molar,70%
same,GI50,[3],1.89E−7 Molar
same,LC50,[3],>1.00E−4 Molar
same,TGI,[3],>1.00E−4 Molar
same,Percent Growth,[3]; Log10 Concentration −4.0 Molar,9%
same,Percent Growth,[3]; Log10 Concentration −5.0 Molar,25%
same,Percent Growth,[3]; Log10 Concentration −6.0 Molar,37%
same,Percent Growth,[3]; Log10 Concentration −7.0 Molar,55%
same,Percent Growth,[3]; Log10 Concentration −8.0 Molar,102%
same,GI50,[4],2.14E−6 Molar
same,LC50,[4],>1.00E−4 Molar
same,TGI,[4],>1.00E−4 Molar
same,Percent Growth,[4]; Log10 Concentration −4.0 Molar,14%
same,Percent Growth,[4]; Log10 Concentration −5.0 Molar,36%
same,Percent Growth,[4]; Log10 Concentration −6.0 Molar,57%
same,Percent Growth,[4]; Log10 Concentration −7.0 Molar,97%
same,Percent Growth,[4]; Log10 Concentration −8.0 Molar,98%
same,GI50,[5],9.39E−8 Molar
same,LC50,[5],>1.00E−4 Molar
same,TGI,[5],>1.00E−4 Molar
same,Percent Growth,[5]; Log10 Concentration −4.0 Molar,2%
same,Percent Growth,[5]; Log10 Concentration −5.0 Molar,7%
same,Percent Growth,[5]; Log10 Concentration −6.0 Molar,21%
same,Percent Growth,[5]; Log10 Concentration −7.0 Molar,49%
same,Percent Growth,[5]; Log10 Concentration −8.0 Molar,94%
same,GI50,[6],6.30E−8 Molar
same,LC50,[6],>1.00E−4 Molar
same,TGI,[6],>1.00E−4 Molar
same,Percent Growth,[6]; Log10 Concentration −4.0 Molar,10%
same,Percent Growth,[6]; Log10 Concentration −5.0 Molar,10%
same,Percent Growth,[6]; Log10 Concentration −6.0 Molar,15%
same,Percent Growth,[6]; Log10 Concentration −7.0 Molar,39%
same,Percent Growth,[6]; Log10 Concentration −8.0 Molar,92%
same,GI50,[7],31.2 to 1000 nM
